Read-outs that look alike come from different tables or passages of the source.

Test [1] deals with cattle. Put plainly: Oral administration (gavage) to cattle: serum NEFA and SUN levels. The conditions noted are these: 1 mg per kilogram body weight oral gavage, mean of five animals; for change in vivo at 1 mg/kg: Bos taurus. It is filed as in vivo, cattle (Angus/Angus cross steer calves). The procedure: In the present example, fifteen head of Angus/Angus cross steer calves, weighing approximately 484 pounds (220 kg) initially to 604 pounds (274 kg) by the end of these three trials, were placed in pens in the cattle facilities, at 5 calves per pen. Standard vaccination and coccidal control were administered.
Calves were fed ad libitum twice daily, approximately 10-15 pounds (4.54-6.81 kg)/day. The feeding times were staggered once treatment was initiatedto ensure that all calves were fed approximately one hour before the treatments were administered and blood samples were obtained. During the A.M. treatment period, the cattle were prevented from returning to feed until the +180 minute blood sample had been collected.
Treatments were administered once a day via oral gavage. The treatments contained 1 mg of test compound per kilogram body weight and were administered in a 50/50 PEG 200/water vehicle, followed with a flush of 20 mls of 50/50 PEG 200/water.
A baseline blood sample (T=0) was taken immediately before the oral gavage treatment was administered. At 90 minutes post-treatment (T+90 min) another blood sample was taken. The cattle were returned to their designated pens until 180 minutes post-treatment (T+180 min), when a third blood sample was collected. The calves were not allowed access to their feed until they had completed the 180 minute blood sample. Additional blood samples were collected from each calf at 24 and 48 hours post treatment.
All blood samples were taken from the jugular vein and placed into serum tubes. Serum was assayed on an IL Monarch analyzer. Blood samples were collected pretreatment (T=0), 90 minutes post-treatment (T+90 min), 180 minutes post-treatment (T+180 min) and 24 hours post-treatment (T+24 h) and 48 hours post-treatment (T+48 h). Sera at T=0, T+90 min, T+180 min, T+24 h, and T+48 h were analyzed for NEFA and SUN.

The subject of the next test is chickens. Briefly: Anabolic effects when administered in feed to chickens. It is filed as in vivo, chicken (Peterson-Hubbard male chicks). From the text:
Approximately 1500 Peterson-Hubbard day-old male chicks were used in a randomized, complete block design with 6 treatments (Control; Clenbuterol at 1 PPM; Compound 1 at 3 and 15 PPM (mg/kg feed); and Compound 5 at 3 and 15 PPM) using pen location in the barn as the blocking factor. Treatments were randomly allotted to pens within each block for a total of 6 pens per block and 6 blocks in the wing. Each treatment consisted of 6 pens, with 10 birds per pen, during the experimental period.
Day-of-age birds were obtained from Pine Manor Hatchery in Goshen, Ind. Approximately 40 birds per pen were setup at random upon receipt. On day 30 of the growout period, all birds were weighed and the 15 birds closest to the block mean were selected. These birds were allowed to acclimate until day 35 of age. On this day, all remaining birds were weighed again, and the 10 birds/pen closest to the block mean were chosen for the treatment phase. Birds were provided ad libitum access to feed and water throughout the trial. All birds were fed a 23% crude protein corn-soy ration from day 1 until day 18 of age. The feed was changed to a 20% crude protein corn-soy ration for day 18 to day 49. The treatment feed was mixed using the 20% crude protein corn-soy basal ration. Treatments were administered in the feed from day 35 through day 49. Feed consumption was calculated over the entire 14 day treatment period. Birds were weighed at trial completion (day 49), and transported to Purdue University meat laboratory for slaughter and carcass measurements on day 50. Weights of the hot carcass, fat pad, and viscera were taken on all animals. Weights of the bone-in, skin-on breast, and the bone-in, skin-on leg quarters were taken only on the control treatment and the high doses of both experimental compounds.

In test [2] the test system is cattle. Put plainly: Intravenous administration to cattle: serum NEFA and SUN levels. It is filed as in vivo, cattle (Angus/Angus cross calves). The conditions noted are these: mean of five animals; for Δ % SUN 24 Hours (percent decrease in serum urea nitrogen compared with baseline T=0) / ΔNEFA 24 Hours (increase in NEFA in blood compared with baseline T=0): 40 μg per kilogram intravenously at 6:30 A.M. and 2:30 P.M., 24 hours post treatment; for ΔNEFA 15 Min. (increase in NEFA in blood compared with baseline T=0): 40 μg per kilogram intravenously, 15 minutes post treatment. The source says: Angus/Angus cross steer calves, both heifers and steers, weighing approximately 282 pounds (128 kg) initially to 788 pounds (358 kg) over the course of these studies, were placed in pens at 5 calves per pen. The cattle were acclimated to the pens for at least 1 week prior to initiating the study.
Calves were fed ad libitum twice daily, (approximately 6-15 pounds (2.7-6.8 kg)/day). During the treatment day, in the A.M. period, the feeding times were staggered to ensure that all animals were fed approximately one hour before the treatments were administered. During the P.M. treatment period, the cattle were fed immediately after receiving the P.M. injection.
After taking a pretreatment (T=0) blood sample from each animal, 40 μg per kilogram of a test compound was administered intravenously in the jugular vein at 6:30 A.M. and 2:30 P.M. Each test compound was administered at a concentration of 1.00-1.25 mg/ml in a treatment vehicle that was a 50/50 mixture of polyethylene glycol 200/water.
A blood sample was taken at fifteen minutes post-treatment (T+15 min). The calves were returned to their respective pens until their next treatment, approximately eight hours later. The next morning at 6:30 A.M. a blood sample was collected from all calves at 24 hours post-treatment (T+24h). All blood samples were analyzed for the non-esterified fatty acid level (NEFA) and serum urea nitrogen level (SUN). The post-treatment NEFA and SUN levels in each individual animal were compared with the levels found before treatment.

[3] abbreviates: 24 hours post treatment, read-out: Δ % SUN 24 Hours (percent decrease in serum urea nitrogen compared with baseline T=0).
[4] abbreviates: 48 hours post treatment, read-out: Δ % SUN 48 Hours (percent decrease in serum urea nitrogen compared with baseline T=0).
[5] abbreviates: 1 PPM in feed, 14 day treatment period.
The mark [6] stands for this setting: 3 PPM in feed, 14 day treatment period.
[7] abbreviates: 3 PPM in feed, 14 day treatment period (day 35 to 49).
[8] abbreviates: 15 PPM in feed, 14 day treatment period.
The mark [9] stands for this setting: 15 PPM in feed, 14 day treatment period (day 35 to 49).

Consider `CC(C)(Cc1ccc(Oc2ccc(C(N)=O)cc2)cc1)NC[C@H](O)COc1cccc2[nH]c(=S)[nH]c12`, for which, in the test on cattle [1] (24 hours post treatment), the “ΔNEFA 24 Hours (increase in NEFA in blood compared with baseline T=0)” value amounted to 17 µmol/L. The change in vivo at 1 mg/kg with cattle [1] (setting [3]) was -8%; in the test with cattle [1] (setting [4]), -12%.

As to `CC(C)(Cc1ccc(Oc2ncccc2C(N)=O)cc1)NC[C@H](O)COc1cccc2[nH]ccc12`, in the test with cattle [1] (24 hours post treatment), the “ΔNEFA 24 Hours (increase in NEFA in blood compared with baseline T=0)” value was -30 µmol/L. The change in vivo at 1 mg/kg with cattle [1] (setting [3]) was -42%; in the test with cattle [1] (setting [4]), -30%.

As for `CC(C)(Cc1ccc(Oc2ncccc2C(N)=O)cc1)NC[C@H](O)COc1cccc2[nH]c(=S)[nH]c12`, the “ΔNEFA 24 Hours (increase in NEFA in blood compared with baseline T=0)” value in the test with cattle [1] (24 hours post treatment) came out at 101 µmol/L. Further, the values for the change in vivo at 1 mg/kg in the test on cattle [1] (setting [3]) and in the test with cattle [1] (setting [4]) were -17% and -13%, respectively.

Consider `CC(C)(Cc1ccc(Oc2ncccc2C(N)=O)cc1)NC[C@H](O)COc1cccc2[nH]c(=O)[nH]c12`, for which the “ΔNEFA 24 Hours (increase in NEFA in blood compared with baseline T=0)” value with cattle [1] (24 hours post treatment) turned out to be 10 µmol/L. The change in vivo at 1 mg/kg was -22% with cattle [1] (setting [3]) and -19% in the test on cattle [1] (setting [4]).

For the molecule `CC(C)(Cc1ccc(Oc2ccc(C#N)cn2)cc1)NC[C@H](O)COc1cccc2[nH]ccc12`, in the test with cattle [1] (24 hours post treatment), the “ΔNEFA 24 Hours (increase in NEFA in blood compared with baseline T=0)” value worked out at 63 µmol/L. For the same molecule, the change in vivo at 1 mg/kg with cattle [1] (setting [3]) was -55%; in the test with cattle [1] (setting [4]), -40%.

Turning to `CC(C)(Cc1ccc(Oc2ccc(C#N)cn2)cc1)NC[C@H](O)COc1cccc2[nH]c(=O)[nH]c12`, the “ΔNEFA 24 Hours (increase in NEFA in blood compared with baseline T=0)” value with cattle [1] (24 hours post treatment) amounted to 18 µmol/L. In addition, the change in vivo at 1 mg/kg with cattle [1] (setting [3]) turned out to be 2%; in the test on cattle [1] (setting [4]) it was 5%.

Turning to `CC(C)(Cc1ccc(Oc2ccc(C(=O)N3CCOCC3)cn2)cc1)NC[C@H](O)COc1cccc2[nH]ccc12`, the “ΔNEFA 24 Hours (increase in NEFA in blood compared with baseline T=0)” value in the test with cattle [1] (24 hours post treatment) is -47 µmol/L. The change in vivo at 1 mg/kg with cattle [1] (setting [3]) is -45%; in the test with cattle [1] (setting [4]) it was -28%.

Consider `CC(C)(Cc1ccc(Oc2ccc(C(=O)N3CCOCC3)cn2)cc1)NC[C@H](O)COc1cccc2[nH]c(=S)[nH]c12`, for which the “ΔNEFA 24 Hours (increase in NEFA in blood compared with baseline T=0)” value in the test with cattle [1] (24 hours post treatment) turned out to be 6 µmol/L. The change in vivo at 1 mg/kg was -18% in the test on cattle [1] (setting [3]) and -15% in the test on cattle [1] (setting [4]).

As to `CC(C)(Cc1ccc(Oc2ccc(S(C)(=O)=O)cc2)cc1)NC[C@H](O)COc1cccc2[nH]c(=S)[nH]c12`, the “ΔNEFA 24 Hours (increase in NEFA in blood compared with baseline T=0)” value in the test with cattle [1] (24 hours post treatment) was determined as 37 µmol/L. The results for the change in vivo at 1 mg/kg in the test with cattle [1] (setting [3]) and in the test on cattle [1] (setting [4]) were -1% and -5%, respectively.

Consider `CC(C)(Cc1ccc(Oc2ccc(S(C)(=O)=O)cc2)cc1)NC[C@H](O)COc1cccc2[nH]c(=O)[nH]c12`, for which the “ΔNEFA 24 Hours (increase in NEFA in blood compared with baseline T=0)” value in the test with cattle [1] (24 hours post treatment) was -6 µmol/L. Besides, the change in vivo at 1 mg/kg in the test on cattle [1] (setting [3]) was -10%; in the test on cattle [1] (setting [4]), -6%.

As for `CC(C)(C)NCC(O)c1cc(Cl)c(N)c(Cl)c1` (stereo not shown) [Clenbuterol], in the test on chickens (setting [5]), the “improvement in feed conversion versus control” value is recorded as “did not show an improvement” and the “increase in weight gain over control” value is on record as 3.54%.

With `CC(C)(Cc1ccc(Oc2ccc(C(N)=O)cn2)cc1)NC[C@H](O)COc1cccc2[nH]ncc12` [Compound 1], the “improvement of feed efficiency” value in the test with chickens (setting [6]) was “not improved”; with chickens (setting [8]), 4.67%. Moreover, the “increase in weight gain over control” value in the test with chickens (setting [7]) worked out at 3.54%; in the test with chickens (setting [9]), 11.50%. Moreover, the “Δ % SUN 24 Hours (percent decrease in serum urea nitrogen compared with baseline T=0)” value with cattle [2] is reported as −28.7%. The “ΔNEFA 24 Hours (increase in NEFA in blood compared with baseline T=0)” value in the test with cattle [2] is 820.9 µmol/L; in the test with cattle [1] (24 hours post treatment), 329 µmol/L. Moreover, the “ΔNEFA 15 Min. (increase in NEFA in blood compared with baseline T=0)” value with cattle [2] is 554.4 µmol/L. The change in vivo at 1 mg/kg was -38% in the test with cattle [1] (setting [3]) and -32% with cattle [1] (setting [4]).

As to `CC(C)(Cc1ccc(Oc2ccc(C#N)cn2)cc1)NC[C@H](O)COc1cccc2[nH]ncc12` [Compound 3], in the test on cattle [2], the “Δ % SUN 24 Hours (percent decrease in serum urea nitrogen compared with baseline T=0)” value is −24.7%, the “ΔNEFA 24 Hours (increase in NEFA in blood compared with baseline T=0)” value was determined as 1069.3 µmol/L and the “ΔNEFA 15 Min. (increase in NEFA in blood compared with baseline T=0)” value amounted to 269.4 µmol/L. Moreover, the “ΔNEFA 24 Hours (increase in NEFA in blood compared with baseline T=0)” value with cattle [1] (24 hours post treatment) stood at 349 µmol/L. For the same molecule, the change in vivo at 1 mg/kg with cattle [1] (setting [3]) is -58%. In the test on cattle [1] (setting [4]), the change in vivo at 1 mg/kg was -57%.

Consider `CC(C)(Cc1ccc(Oc2ccc(C(=O)N3CCOCC3)cn2)cc1)NC[C@H](O)COc1cccc2[nH]ncc12` [Compound 4], for which, in the test with cattle [2], the “Δ % SUN 24 Hours (percent decrease in serum urea nitrogen compared with baseline T=0)” value was −40.1%, the “ΔNEFA 24 Hours (increase in NEFA in blood compared with baseline T=0)” value turned out to be 1251.8 µmol/L and the “ΔNEFA 15 Min. (increase in NEFA in blood compared with baseline T=0)” value worked out at 194.8 µmol/L. The “ΔNEFA 24 Hours (increase in NEFA in blood compared with baseline T=0)” value in the test on cattle [1] (24 hours post treatment) amounted to 1129 µmol/L. The change in vivo at 1 mg/kg in the test with cattle [1] (setting [3]) is -47%. In the test with cattle [1] (setting [4]), the change in vivo at 1 mg/kg is -48%.

For the molecule `CC(C)(Cc1ccc(Oc2ccc(S(C)(=O)=O)cc2)cc1)NC[C@H](O)COc1cccc2[nH]ncc12` [Compound 5], the “improvement of feed efficiency” value was “not improved” in the test on chickens (setting [6]) and 3.27% with chickens (setting [8]). Further, the “increase in weight gain over control” value in the test on chickens (setting [7]) is reported as 2.65%; in the test with chickens (setting [9]), 8.85%. For the same molecule, in the test on cattle [2], the “Δ % SUN 24 Hours (percent decrease in serum urea nitrogen compared with baseline T=0)” value is on record as −25.4%. The “ΔNEFA 24 Hours (increase in NEFA in blood compared with baseline T=0)” value in the test on cattle [2] worked out at 1541.9 µmol/L; in the test with cattle [1] (24 hours post treatment), 1216 µmol/L. The “ΔNEFA 15 Min. (increase in NEFA in blood compared with baseline T=0)” value in the test on cattle [2] stood at 397.3 µmol/L. Further, the change in vivo at 1 mg/kg was -33% in the test on cattle [1] (setting [3]) and -60% with cattle [1] (setting [4]).

Values taken from US6534504B1, “Indazolyloxy propanolamines for improving livestock production” (Eli Lilly and Company, priority 1999, dated 2003).
